The numbers were not newly measured in patent publication US20050171131A1, “Diaminopyrimidine derivatives as growth hormone secrectgogue receptor (GHS-R) antagonists” (priority 2003, published 2005), which cites them from elsewhere.

Non-standard residues stand in square brackets, D forms with d. No end group written: not given here.

The mark [1] stands for this setting: repeated administration, ob/ob mice.

On to H-H[dW][dK]W[dF]K [[D-Lys-3]-GHRP], for which the energy intake result (lean mice, mice with diet induced obesity, ob/ob obese mice) is listed as “decrease energy intake”. In addition, the “rate of gastric emptying” value (mice) is reported as “reduced the rate of gastric emptying”. Under setting [1], the body weight entry was “decreased body weight” and the glycemic control entry was “improved glycemic control”.
